13 molecules from patent US8865894B2, “Oxazolidin-2-one compounds and uses thereof” (Novartis AG, priority 2012, dated 2014) can be followed below.

For one assay, the target named is T1, human PI3Kα (Homo sapiens, UniProt P42336).
T1 construct: made in house
Nature of the assay: Biochemical PI3Kalpha (KinaseGlo luminescent kinase assay). As for the experimental part: Test compounds were dissolved in DMSO (10 mM) and transferred into 1.4 mL flat bottom or V-shaped Matrix tubes carrying a unique 2D matrix chip by individual Novartis compound hubs. The numbers of these chips were distinctively linked to Novartis Pharma Numbers. The stock solutions were stored at −20° C. if not used immediately. For the test procedure the vials were defrosted and identified by a scanner whereby a working sheet was generated that guided the subsequent working steps.
Compounds were either manually diluted in DMSO for individual experiments (96 wells enabling 10 cpds at 8 (single points) concentrations) as described in or prepared as described below if tested for profiling in 384-wells. This format enabled the assay of maximally 40 individual test compounds at 8 concentrations (single points) including 4 reference compounds. The dilution protocol included the production of “pre-dilution plates”, “master plates” and “assay plates”.
96 polypropylene well plates were used as pre-dilution plates. A total of 4 pre-dilution plates were prepared including 10 test compounds each on the plate positions A1-A10, one standard compound at A11 and one DMSO control at A12. Programs have been written to run these pipetting steps on the HamiltonSTAR robots.
Identical “assay plates” were then prepared by pipetting 50 nL each of compound dilutions of the “master plates” into 384-well “assay plates”. The compounds were mixed with 4.5 μL of assays components plus 4.5 μL enzyme corresponding to a 1:181 dilution enabling the final concentration of 10, 3.0, 1.0, 0.3, 0.1, 0.03, 0.01 and 0.003 μM, respectively. The preparation of the “master plates” was handled by the Matrix PlateMate Plus robot and replication of “assay plates” by the HummingBird robot.
Catalytically active human PI3Kα, PI3Kβ, PI3Kδ, and mTOR were cloned, expressed and purified as described (Maira S M, Stauffer F, Brueggen J, Furet P, Schnell C, Fritsch C, Brachmann S, Chène P, de Pover A, Schoemaker K, Fabbro D, Gabriel D, Simonen M, Murphy L, Finan P, Sellers W, García-Echeverría C (2008), Mol Cancer Ther. 7:1851-63 and Maira S M, Pecchi S, Brueggen J, Huh K, Schnell C, Fritsch C, Nagel T, Wiesmann M, Brachmann S, Dorsch M, Chène P, Schoemaker K, De Pover A, Menezes D, Fabbro D, Sellers W, García-Echeverría C, Voliva C F (2011), Mol. Cancer Ther. accepted).
The luminescence-based ATP detection reagent KinaseGlo was obtained from Promega, (Cat. No. V6714, Lot No. 236161) through Catalys, Wallisellen, Switzerland. (L-alpha-phosphatidylinositol (PI), Liver, Bovine) were obtained from Avanti Polar Lipid (Cat. No. 840042C, Lot#LPI-274), Phosphatidylinositol-4,5-bisphosphate (PIP(4,5)2 (Avanti, Cat. No. 840046×) or L-α-phosphatidylinositol (PI) was obtained from Avanti Polar Lipid (Cat. No. 840042C, Lot#LPI-274). L-α-Phosphatidylserine (PS) was from Avanti Polar Lipid (Cat. No. 840032C), n-OctylGlucoside Avanti Polar Lipid (Cat. No. 10634425001). Luminescence is a well established readout to determine ATP concentrations and can thus be used to follow the activity of many kinases regardless of their substrate. The Kinase Glo Luminescent Kinase Assay (Promega, Madison/Wis., USA) is a homogeneous HTS method of measuring kinase activity by quantifying the amount of ATP remaining in solution following a kinase reaction.
50 nL of compound dilutions were dispensed onto black 384-well low volume Non Binding Styrene (NBS) plates (Costar Cat. No. NBS#3676) as described in section 8.2. L-α-phosphatidylinositol (PI), provided as 10 mg/ml solution in methanol, was transferred into a glass tube and dried under nitrogen beam. It was then resuspended in 3% OctylGlucoside by vortexing and stored at 4° C. 5 μL of a mix of PI/OG with the PI3Ka and Pi3Kb subtypes were added. Kinase reactions were started by addition of 5 μl of ATP-mix containing in a final volume 10 μL 10 mM TRIS-HCl pH 7.5, 3 mM MgCl2, 50 mM NaCl, 0.05% CHAPS, 1 mM DTT and 1 μM ATP, and occurred at room temperature.

For another assay, the target named is T2, mTOR (Mus musculus, UniProt Q9JLN9).
T2 construct: endogenous in cells; host or cells: TSC1-/- MEF (mouse embryo fibroblasts)
Kind of assay: Cellular assay mTOR (phospho-T389 S6K1 SureFire in TSC1-/- MEF cells). Format: cell-based. From the text: A cell based assay (384-well format) was developed for determination of compound effects on cellular mTOR kinase activity in MEF (mouse embryo fibroblasts) cells derived from mice lacking TSC1 (Tuberosclerosis Complex1) a potent suppressor of mTOR kinase activity. Due to lack of TSC1 the mTOR kinase is constitutively activated resulting in permanent phosphorylation of Thr 389 of S6 kinase 1 (S6K1) which is one of the downstream targets of mTOR.
Using a SureFire Kit that enables to determine the phosphorylation of Thr389 on the S6K1 an assay was developed, validated and implemented in the Alpha-Screen format that allows the quantitative determination of phospho-T389 of S6K1 in cell lysates. […] These were in agreement with those values obtained with the biochemical mTOR ATP-binding assay enabling a quantitative comparison of potency of mTOR inhibitors.
TSC1−/− MEFs cells (Kwiatkowski, D. J., Zhang, H., Bandura, J. L., Heiberger, K. M., Glogauer, M., el-Hashemite, N., and Onda, H. (2002) Hum. Mol. Genet. 11, 525-534) were cultured in DMEM high glucose medium supplemented with 10% FBS (Invitrogen), 2 mM Glutamine and 1% (w/v) Penicillin/Streptomycin at 37° C., 5% CO2.
The SureFire kit for determination of P70S6kinase phosphorylation was purchased from Perkin Elmer (p70S6K p-T389, #TGR70S50K) and the assay was performed according to the instructions of the supplier and according to the generic method for SureFire assays. Shortly, 5 μL cell lysate per well were transferred to 384-well white proxy-plates (for luminescent readout) and mixed with […] and […] (final volume: 12 μL). After 3 h incubation in the dark at RT luminescence was read with the Envision Reader (Perkin Elmer). Untreated cells were used as control (high control) and cells treated with 3 μM BEZ235 were used as low control. The assay window between the signals obtained for the high and the low controls were defined as 100% and compound effects were expressed as percent inhibition. IC50 values were calculated from the dose response curves by graphical extrapolation.

The mark [1] stands for this setting: biochemical, 1 μM ATP, mean of n measurements.
Setting [2] is: TSC1-/- MEF cells, read-out: mTOR S6K(T389)_TSC1ko/ IC50.
[3] abbreviates: biochemical, 1 μM ATP, mean of n measurements, read-out: PI3Ka/ IC50.

Structures are written as SMILES. Read-outs that look alike come from different tables or passages of the source.

T1 sequence (P42336 with tags, fused parts or gaps limits assumed): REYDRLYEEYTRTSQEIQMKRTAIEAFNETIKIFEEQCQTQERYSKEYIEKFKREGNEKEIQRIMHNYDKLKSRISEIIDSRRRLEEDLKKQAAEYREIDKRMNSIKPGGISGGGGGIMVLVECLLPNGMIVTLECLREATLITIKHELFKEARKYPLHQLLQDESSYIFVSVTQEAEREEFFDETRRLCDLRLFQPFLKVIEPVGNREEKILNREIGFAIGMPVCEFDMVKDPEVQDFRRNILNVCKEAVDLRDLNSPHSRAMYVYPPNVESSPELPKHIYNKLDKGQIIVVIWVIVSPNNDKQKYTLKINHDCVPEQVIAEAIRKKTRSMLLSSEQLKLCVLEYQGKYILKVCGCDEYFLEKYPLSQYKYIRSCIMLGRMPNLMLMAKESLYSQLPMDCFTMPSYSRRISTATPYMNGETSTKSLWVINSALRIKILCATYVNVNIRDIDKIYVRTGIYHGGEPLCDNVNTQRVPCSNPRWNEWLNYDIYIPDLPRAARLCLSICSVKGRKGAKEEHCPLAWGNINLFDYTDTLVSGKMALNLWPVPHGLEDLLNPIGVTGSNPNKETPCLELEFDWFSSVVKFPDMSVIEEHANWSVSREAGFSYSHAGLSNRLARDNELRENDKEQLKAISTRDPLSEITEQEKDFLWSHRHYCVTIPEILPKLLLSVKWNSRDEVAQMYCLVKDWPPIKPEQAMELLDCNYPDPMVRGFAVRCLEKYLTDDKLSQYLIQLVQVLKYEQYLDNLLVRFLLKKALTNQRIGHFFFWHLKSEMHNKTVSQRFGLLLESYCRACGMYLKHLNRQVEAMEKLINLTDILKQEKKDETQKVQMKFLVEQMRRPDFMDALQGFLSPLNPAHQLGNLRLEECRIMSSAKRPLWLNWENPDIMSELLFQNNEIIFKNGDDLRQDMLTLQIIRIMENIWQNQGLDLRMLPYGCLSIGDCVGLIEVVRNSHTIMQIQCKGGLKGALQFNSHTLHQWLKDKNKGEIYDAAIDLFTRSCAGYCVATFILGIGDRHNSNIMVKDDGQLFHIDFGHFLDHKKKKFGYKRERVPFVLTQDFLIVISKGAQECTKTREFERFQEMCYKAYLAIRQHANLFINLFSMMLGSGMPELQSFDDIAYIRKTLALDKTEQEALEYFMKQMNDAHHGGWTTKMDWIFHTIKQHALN

As to `Nc1ncc(-c2cc(N3C(=O)O[C@H]4COC[C@H]43)nc(N3CCOCC3)n2)c(C(F)(F)F)n1` [Example 21, (3aR,6aR)-3-(2′-amino-2-morpholino-4′-(trifluoromethyl)-[4,5′-bipyrimidin]-6-yl)-tetrahydrofuro[3,4-d]oxazol-2(3H)-one], on human PI3Kα (setting [1]), the “PI3Ka/ IC50” value is recorded as 0.019 umol I-1. Moreover, the IC50 on mTOR (setting [2]) amounted to 942 nM.

On to `Nc1ncc(-c2cc(N3C(=O)OC4C(O)CCC43)nc(N3CCOCC3)n2)c(C(F)(F)F)n1` (single isomer, unassigned) [Example 22A], for which the IC50 at human PI3Kα (setting [3]) came to 7 nM; on mTOR (setting [2]), 2120 nM.

On to `C[C@H]1OC(=O)N(c2cc(-c3cnc(N)nc3C(F)(F)F)nc(N3CCOCC3)n2)[C@H]1CO` [Example 18, (4S,5R)-3-(2′-Amino-2-morpholin-4-yl-4′-trifluoromethyl-[4,5′]bipyrimidinyl-6-yl)-4-hydroxymethyl-5-methyl-oxazolidin-2-one], for which, at human PI3Kα (setting [1]), the “PI3Ka/ IC50” value was 0.009 umol I-1. Also, the IC50 at mTOR (setting [2]) stood at 794 nM.

Turning to `C[C@@H]1OC(=O)N(c2cc(-c3cnc(N)nc3C(F)(F)F)nc(N3CCOCC3)n2)[C@H]1CO` [Example 6], on human PI3Kα (setting [1]), the “PI3Ka/ IC50” value was 0.013 umol I-1. Besides, on mTOR (setting [2]), the IC50 stood at 574 nM.

For `Nc1ncc(-c2cc(N3C[C@H](CO)OC3=O)nc(N3CCOCC3)n2)c(C(F)(F)F)n1` [Example 20, (R)-3-(2′-Amino-2-morpholin-4-yl-4′-trifluoromethyl-[4,5′]bipyrimidinyl-6-yl)-5-hydroxymethyl-oxazolidin-2-one], the “PI3Ka/ IC50” value at human PI3Kα (setting [1]) was found to be 0.024 umol I-1. Besides, at mTOR (setting [2]), the IC50 is over 2270 nM.

On to `COC[C@H]1COC(=O)N1c1cc(-c2cnc(N)nc2C(F)(F)F)nc(N2CCOCC2)n1` [Example 5, (S)-3-(2′-Amino-2-morpholin-4-yl-4′-trifluoromethyl-[4,5′]bipyrimidinyl-6-yl)-4-methoxymethyl-oxazolidin-2-one], for which the “PI3Ka/ IC50” value on human PI3Kα (setting [1]) came out at 0.011 umol I-1. For the same molecule, on mTOR (setting [2]), the IC50 came out at 1410 nM.

With `Nc1ncc(-c2cc(N3C(=O)OC4C(O)CCC43)nc(N3CCOCC3)n2)c(C(F)(F)F)n1` (single isomer, unassigned) [Example 22B], the IC50 at human PI3Kα (setting [3]) was 26 nM; at mTOR (setting [2]), 2300 nM.

Take `C[C@H]1[C@@H](CO)OC(=O)N1c1cc(-c2cnc(N)nc2C(F)(F)F)nc(N2CCOCC2)n1` [Example 19, (4S,5S)-3-(2′-Amino-2-morpholin-4-yl-4′-trifluoromethyl-[4,5′]bipyrimidinyl-6-yl)-5-hydroxymethyl-4-methyl-oxazolidin-2-one]: the “PI3Ka/ IC50” value at human PI3Kα (setting [1]) is reported as 0.006 umol I-1. The IC50 on mTOR (setting [2]) was 423 nM.

For the molecule `C[C@H]1OC(=O)N(c2cc(-c3cnc(N)nc3C(F)(F)F)nc(N3CCOC[C@@H]3C)n2)[C@H]1CO` [Example 10, (4S,5R)-3-[2′-Amino-2-((S)-3-methyl-morpholin-4-yl)-4′-trifluoromethyl-[4,5′]bipyrimidinyl-6-yl]-4-hydroxymethyl-5-methyl-oxazolidin-2-one], the “PI3Ka/ IC50” value on human PI3Kα (setting [1]) was found to be 0.008 umol I-1. The IC50 was 2020 nM at mTOR (setting [2]) and over 2270 nM at mTOR (second value / 3 of the 4 values / 3 of the 5 values as per footnote, read-out: mTOR S6K(T389)_TSC1ko IC50, further individual values (footnotes)).

For the molecule `Nc1ncc(-c2cc(N3C(=O)O[C@@H]4[C@@H](O)CC[C@@H]43)nc(N3CCOCC3)n2)c(C(F)(F)F)n1` (racemic) [Example 22, (3aR*,6R*,6aR*)-3-(2′-Amino-2-morpholino-4′-(trifluoromethyl)-[4,5′-bipyrimidin]-6-yl)-6-hydroxyhexahydro-2H-cyclopenta[d]oxazol-2-one], the IC50 on human PI3Kα (setting [3]) came to 6 nM; at mTOR (setting [2]), 1390 nM.

Turning to `C[C@H](O)CC1OC(=O)N(c2cc(-c3cnc(N)nc3C(F)(F)F)nc(N3CCOCC3)n2)[C@H]1C` (single isomer, unassigned) [Example 25], the IC50 is under 3 nM on human PI3Kα (a different, separate measurement, read-out: PI3Ka IC50, different, separate measurement (footnote)); 5 nM on human PI3Kα (setting [3]); 1830 nM at mTOR (setting [2]).

For the molecule `[2H]C1([2H])OC([2H])([2H])C([2H])([2H])N(c2nc(-c3cnc(N)nc3C(F)(F)F)cc(N3C(=O)O[C@H](C)[C@@H]3CO)n2)C1([2H])[2H]` [Example 8], the “PI3Ka/ IC50” value at human PI3Kα (setting [1]) is recorded as 0.013 umol I-1. At mTOR (setting [2]), the IC50 is 994 nM.

Take `C[C@H]1OC(=O)N(c2cc(-c3cnc(N)nc3C(F)(F)F)nc(N3CCOCC3)n2)[C@H]1COC=O` [Example 12, Formic acid (4S,5R)-3-(2′-amino-2-morpholin-4-yl-4′-trifluoromethyl-[4,5′]bipyrimidinyl-6-yl)-5-methyl-2-oxo-oxazolidin-4-ylmethyl ester]: the “PI3Ka/ IC50” value on human PI3Kα (setting [1]) is on record as 0.030 umol I-1. In addition, the IC50 at mTOR (setting [2]) is 1100 nM.
